In ChEMBL document CHEMBL4630901 (2021):

Tests used:
[1] = molecular target: Progesterone receptor (Homo sapiens) (UniProt P06401); conditions: Compound concentration 10.0 uM
[2] = molecular target: 5-hydroxytryptamine receptor 2B (Homo sapiens) (UniProt P41595); conditions: Compound concentration 10.0 uM
[3] = molecular target: Muscarinic acetylcholine receptor M3 (Homo sapiens) (UniProt P20309); conditions: Compound concentration 10.0 uM
[4] = molecular target: Prostaglandin E2 receptor EP2 subtype (Homo sapiens) (UniProt P43116); experiment: Prostanoid EP2 Eurofins-Panlabs radioligand binding assay; design: ligand concentration 4 nM
Sequence of Prostaglandin E2 receptor EP2 subtype (Homo sapiens) (P43116 whole entry): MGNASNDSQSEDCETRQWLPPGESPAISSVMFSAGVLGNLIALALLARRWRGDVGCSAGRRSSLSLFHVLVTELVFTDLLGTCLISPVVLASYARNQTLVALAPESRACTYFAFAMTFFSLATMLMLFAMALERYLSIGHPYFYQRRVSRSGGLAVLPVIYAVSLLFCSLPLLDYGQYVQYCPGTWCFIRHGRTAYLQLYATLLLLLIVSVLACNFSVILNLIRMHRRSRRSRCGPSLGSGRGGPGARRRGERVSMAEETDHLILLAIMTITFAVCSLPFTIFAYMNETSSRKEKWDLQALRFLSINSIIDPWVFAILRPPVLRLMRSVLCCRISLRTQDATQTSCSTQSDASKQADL

[5] = molecular target: B2 bradykinin receptor (Homo sapiens) (UniProt P30411); conditions: Compound concentration 10.0 uM
Homo sapiens = organism: Homo sapiens; experiment: Inhibition of Nicotinic Acetylcholine at compound concentration of 10.0 uM in the Eurofins-Panlabs radioligand binding assay (Eurofins_assay_258590); type: protein-complex assay; conditions: Compound concentration 10.0 uM
[6] = molecular target: T1, Alpha-1A adrenergic receptor (Homo sapiens) (UniProt P35348); conditions: Rattus norvegicus; Compound concentration 10.0 uM
T1 sequence (whole entry): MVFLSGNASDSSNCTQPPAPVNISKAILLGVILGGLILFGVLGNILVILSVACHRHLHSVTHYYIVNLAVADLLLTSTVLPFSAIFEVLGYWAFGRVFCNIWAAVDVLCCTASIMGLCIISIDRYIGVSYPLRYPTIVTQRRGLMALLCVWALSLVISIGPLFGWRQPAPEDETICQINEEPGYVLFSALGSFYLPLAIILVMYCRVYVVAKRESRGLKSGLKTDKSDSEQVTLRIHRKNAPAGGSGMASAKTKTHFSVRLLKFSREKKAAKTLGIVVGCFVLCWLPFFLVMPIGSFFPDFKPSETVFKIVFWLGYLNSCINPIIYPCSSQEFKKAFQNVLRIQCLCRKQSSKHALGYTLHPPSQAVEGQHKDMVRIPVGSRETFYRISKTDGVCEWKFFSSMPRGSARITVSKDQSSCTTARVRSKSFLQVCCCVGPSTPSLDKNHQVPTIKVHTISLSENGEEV

[7] = molecular target: Adenosine receptor A1 (Homo sapiens) (UniProt P30542); conditions: Compound concentration 10.0 uM
[8] = molecular target: Androgen receptor (Homo sapiens) (UniProt P10275); conditions: Compound concentration 10.0 uM
[9] = molecular target: Type-2 angiotensin II receptor (Homo sapiens) (UniProt P50052); conditions: Compound concentration 10.0 uM
[10] = molecular target: Adenosine receptor A2a (Homo sapiens) (UniProt P29274); conditions: Compound concentration 10.0 uM
Sequence of Adenosine receptor A2a (Homo sapiens) (P29274 whole entry): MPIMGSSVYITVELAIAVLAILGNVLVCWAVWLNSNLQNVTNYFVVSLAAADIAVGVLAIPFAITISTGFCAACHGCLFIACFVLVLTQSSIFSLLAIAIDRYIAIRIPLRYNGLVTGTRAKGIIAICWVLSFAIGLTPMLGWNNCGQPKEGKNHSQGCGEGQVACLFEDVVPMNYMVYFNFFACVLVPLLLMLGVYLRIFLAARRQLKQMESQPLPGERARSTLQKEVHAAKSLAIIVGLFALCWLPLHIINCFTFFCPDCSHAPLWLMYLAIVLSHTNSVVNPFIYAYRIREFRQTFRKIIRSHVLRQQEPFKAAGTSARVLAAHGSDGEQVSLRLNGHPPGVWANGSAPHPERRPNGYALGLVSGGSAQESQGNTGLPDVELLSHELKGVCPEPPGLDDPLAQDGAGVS

[11] = molecular target: Glutamate receptor 2 (Homo sapiens) (UniProt P42262); conditions: Rattus norvegicus; Compound concentration 10.0 uM
Sequence of Glutamate receptor 2 (Homo sapiens) (P42262 whole entry): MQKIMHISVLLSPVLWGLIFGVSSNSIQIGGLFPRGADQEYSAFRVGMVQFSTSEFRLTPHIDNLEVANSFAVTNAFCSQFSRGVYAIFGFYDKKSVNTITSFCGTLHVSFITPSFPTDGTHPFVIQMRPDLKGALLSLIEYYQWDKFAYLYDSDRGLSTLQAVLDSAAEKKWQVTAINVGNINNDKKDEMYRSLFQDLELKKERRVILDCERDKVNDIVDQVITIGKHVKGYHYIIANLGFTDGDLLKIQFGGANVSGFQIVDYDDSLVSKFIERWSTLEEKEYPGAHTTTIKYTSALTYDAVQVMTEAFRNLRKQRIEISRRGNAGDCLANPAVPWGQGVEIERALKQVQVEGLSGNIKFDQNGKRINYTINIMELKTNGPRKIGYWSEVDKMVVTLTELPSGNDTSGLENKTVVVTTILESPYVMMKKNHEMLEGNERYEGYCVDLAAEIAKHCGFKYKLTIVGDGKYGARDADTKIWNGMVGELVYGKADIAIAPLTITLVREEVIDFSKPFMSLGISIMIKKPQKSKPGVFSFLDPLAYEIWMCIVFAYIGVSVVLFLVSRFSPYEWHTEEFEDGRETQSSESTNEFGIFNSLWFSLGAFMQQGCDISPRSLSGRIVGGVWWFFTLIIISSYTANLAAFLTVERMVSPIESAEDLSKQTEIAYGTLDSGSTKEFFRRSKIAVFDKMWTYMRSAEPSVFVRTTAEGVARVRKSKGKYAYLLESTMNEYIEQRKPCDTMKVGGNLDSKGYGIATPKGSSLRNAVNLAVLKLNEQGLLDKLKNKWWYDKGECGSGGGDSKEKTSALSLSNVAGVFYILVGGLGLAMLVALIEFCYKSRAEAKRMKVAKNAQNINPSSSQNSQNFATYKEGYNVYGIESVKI

[12] = molecular target: Beta-3 adrenergic receptor (Homo sapiens) (UniProt P13945); conditions: Compound concentration 10.0 uM
[13] = molecular target: T2, Muscarinic acetylcholine receptor M1 (Homo sapiens) (UniProt P11229); conditions: Compound concentration 10.0 uM
T2 sequence (whole entry): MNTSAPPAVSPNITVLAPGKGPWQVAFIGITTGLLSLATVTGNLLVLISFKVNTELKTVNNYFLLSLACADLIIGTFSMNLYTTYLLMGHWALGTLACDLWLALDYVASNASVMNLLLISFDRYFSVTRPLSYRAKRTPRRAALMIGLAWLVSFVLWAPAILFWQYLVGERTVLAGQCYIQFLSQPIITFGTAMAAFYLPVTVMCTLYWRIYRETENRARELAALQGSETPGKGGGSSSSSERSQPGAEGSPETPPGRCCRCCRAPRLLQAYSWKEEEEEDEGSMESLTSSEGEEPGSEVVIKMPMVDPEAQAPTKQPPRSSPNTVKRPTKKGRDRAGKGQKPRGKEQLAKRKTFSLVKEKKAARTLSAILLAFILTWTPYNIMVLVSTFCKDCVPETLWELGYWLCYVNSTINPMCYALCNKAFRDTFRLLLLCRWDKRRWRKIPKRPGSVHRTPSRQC

[14] = molecular target: Type-1 angiotensin II receptor (Homo sapiens) (UniProt P30556); conditions: Compound concentration 10.0 uM
[15] = molecular target: Endothelin-1 receptor (Homo sapiens) (UniProt P25101); conditions: Compound concentration 10.0 uM
Sequence of Endothelin-1 receptor (Homo sapiens) (P25101 whole entry): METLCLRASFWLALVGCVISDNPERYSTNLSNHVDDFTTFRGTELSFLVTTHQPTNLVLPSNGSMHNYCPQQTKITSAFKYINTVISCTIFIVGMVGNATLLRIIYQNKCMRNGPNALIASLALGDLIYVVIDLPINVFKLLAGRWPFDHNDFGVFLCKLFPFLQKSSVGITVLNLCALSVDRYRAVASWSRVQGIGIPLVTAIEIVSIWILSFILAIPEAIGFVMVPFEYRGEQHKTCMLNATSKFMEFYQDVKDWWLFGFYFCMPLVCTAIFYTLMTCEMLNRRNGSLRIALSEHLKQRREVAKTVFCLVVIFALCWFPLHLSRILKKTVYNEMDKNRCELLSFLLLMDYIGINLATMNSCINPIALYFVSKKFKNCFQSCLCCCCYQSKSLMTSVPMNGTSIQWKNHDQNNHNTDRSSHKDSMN

[16] = molecular target: T3, Prostaglandin D2 receptor (Homo sapiens) (UniProt Q13258); experiment: Prostanoid DP Eurofins-Panlabs radioligand binding assay; design: ligand concentration 2 nM
T3 sequence (whole entry): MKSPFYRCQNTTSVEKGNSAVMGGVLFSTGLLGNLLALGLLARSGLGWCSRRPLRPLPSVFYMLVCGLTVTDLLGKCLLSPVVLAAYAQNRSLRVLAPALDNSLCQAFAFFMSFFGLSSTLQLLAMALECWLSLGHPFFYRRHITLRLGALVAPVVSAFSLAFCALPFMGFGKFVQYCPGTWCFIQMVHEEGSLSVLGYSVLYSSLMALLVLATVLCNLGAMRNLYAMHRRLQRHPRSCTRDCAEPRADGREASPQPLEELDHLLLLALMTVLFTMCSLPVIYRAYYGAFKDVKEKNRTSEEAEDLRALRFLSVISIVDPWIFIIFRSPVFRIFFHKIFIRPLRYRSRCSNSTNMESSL

[17] = molecular target: Beta-1 adrenergic receptor (Homo sapiens) (UniProt P08588); conditions: Compound concentration 10.0 uM
[18] = molecular target: D(2) dopamine receptor (Homo sapiens) (UniProt P14416); conditions: Compound concentration 10.0 uM
[19] = molecular target: Adenosine receptor A3 (Homo sapiens) (UniProt P0DMS8); conditions: Compound concentration 10.0 uM
Sequence of Adenosine receptor A3 (Homo sapiens) (P0DMS8 whole entry): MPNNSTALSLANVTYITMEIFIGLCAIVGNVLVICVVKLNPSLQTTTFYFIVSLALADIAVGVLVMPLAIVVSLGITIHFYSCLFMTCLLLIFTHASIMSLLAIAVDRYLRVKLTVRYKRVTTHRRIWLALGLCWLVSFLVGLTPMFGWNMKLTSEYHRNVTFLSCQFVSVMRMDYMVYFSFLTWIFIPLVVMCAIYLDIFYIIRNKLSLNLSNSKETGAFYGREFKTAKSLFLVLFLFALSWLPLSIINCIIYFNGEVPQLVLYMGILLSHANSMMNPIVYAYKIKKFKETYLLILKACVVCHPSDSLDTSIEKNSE

[20] = molecular target: Prostaglandin E2 receptor EP4 subtype (Homo sapiens) (UniProt P35408); experiment: Inhibition of Prostanoid EP4 at 10 µM in the Eurofins-Panlabs radioligand binding assay (Eurofins_assay_268420); design: ligand concentration 1 nM
Sequence of Prostaglandin E2 receptor EP4 subtype (Homo sapiens) (P35408 whole entry): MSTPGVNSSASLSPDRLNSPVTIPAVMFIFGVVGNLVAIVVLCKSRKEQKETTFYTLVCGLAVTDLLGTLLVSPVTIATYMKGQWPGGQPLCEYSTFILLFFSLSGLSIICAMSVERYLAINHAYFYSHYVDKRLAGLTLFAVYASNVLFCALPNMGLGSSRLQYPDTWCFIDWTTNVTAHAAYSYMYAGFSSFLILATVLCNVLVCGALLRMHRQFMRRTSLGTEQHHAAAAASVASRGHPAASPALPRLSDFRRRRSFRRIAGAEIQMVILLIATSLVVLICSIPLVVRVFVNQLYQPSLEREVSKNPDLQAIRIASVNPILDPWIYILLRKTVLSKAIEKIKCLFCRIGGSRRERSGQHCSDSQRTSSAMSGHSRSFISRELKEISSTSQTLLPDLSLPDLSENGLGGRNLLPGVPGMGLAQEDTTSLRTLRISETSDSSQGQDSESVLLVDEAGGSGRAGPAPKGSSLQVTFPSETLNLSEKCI

Oryctolagus cuniculus = organism: Oryctolagus cuniculus; experiment: Inhibition of Purinergic P2X at 10 µM in the Eurofins-Panlabs radioligand binding assay (Eurofins_assay_268700); type: protein assay; conditions: Compound concentration 10.0 uM
[21] = molecular target: 5-hydroxytryptamine receptor 1E (Homo sapiens) (UniProt P28566); conditions: Compound concentration 10.0 uM
[22] = molecular target: Histamine H3 receptor (Homo sapiens) (UniProt Q9Y5N1); conditions: Compound concentration 10.0 uM
Sequence of Histamine H3 receptor (Homo sapiens) (Q9Y5N1 whole entry): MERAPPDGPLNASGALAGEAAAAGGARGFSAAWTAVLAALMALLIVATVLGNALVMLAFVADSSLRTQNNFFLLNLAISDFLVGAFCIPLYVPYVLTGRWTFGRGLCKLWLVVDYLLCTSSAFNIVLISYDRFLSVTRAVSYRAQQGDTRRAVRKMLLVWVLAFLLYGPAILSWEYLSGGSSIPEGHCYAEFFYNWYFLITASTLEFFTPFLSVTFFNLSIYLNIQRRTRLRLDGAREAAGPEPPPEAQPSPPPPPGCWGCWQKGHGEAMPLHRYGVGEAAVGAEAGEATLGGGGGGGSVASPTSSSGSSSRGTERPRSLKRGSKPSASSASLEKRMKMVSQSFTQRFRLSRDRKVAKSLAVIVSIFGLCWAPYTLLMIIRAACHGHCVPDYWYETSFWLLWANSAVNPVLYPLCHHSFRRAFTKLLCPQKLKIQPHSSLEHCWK

[23] = molecular target: Prostaglandin F2-alpha receptor (Homo sapiens, UniProt P43088); experiment: Panlabs binding assay
[24] = Compound concentration 0.001 uM

Sequence of 5-hydroxytryptamine receptor 2B (Homo sapiens) (P41595 whole entry): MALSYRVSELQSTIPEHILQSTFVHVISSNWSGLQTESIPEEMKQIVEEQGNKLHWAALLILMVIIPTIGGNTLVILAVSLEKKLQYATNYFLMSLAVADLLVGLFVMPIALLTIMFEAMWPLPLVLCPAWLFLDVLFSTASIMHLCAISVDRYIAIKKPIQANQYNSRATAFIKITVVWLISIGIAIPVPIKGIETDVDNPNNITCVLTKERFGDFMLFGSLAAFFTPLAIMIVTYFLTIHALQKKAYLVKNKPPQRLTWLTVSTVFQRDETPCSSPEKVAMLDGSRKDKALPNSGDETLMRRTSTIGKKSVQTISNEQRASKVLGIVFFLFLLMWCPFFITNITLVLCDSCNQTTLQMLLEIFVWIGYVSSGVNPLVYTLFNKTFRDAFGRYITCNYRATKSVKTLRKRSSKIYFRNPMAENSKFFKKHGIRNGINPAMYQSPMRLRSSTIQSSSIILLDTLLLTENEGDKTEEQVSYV
Sequence of Progesterone receptor (Homo sapiens) (P06401 whole entry): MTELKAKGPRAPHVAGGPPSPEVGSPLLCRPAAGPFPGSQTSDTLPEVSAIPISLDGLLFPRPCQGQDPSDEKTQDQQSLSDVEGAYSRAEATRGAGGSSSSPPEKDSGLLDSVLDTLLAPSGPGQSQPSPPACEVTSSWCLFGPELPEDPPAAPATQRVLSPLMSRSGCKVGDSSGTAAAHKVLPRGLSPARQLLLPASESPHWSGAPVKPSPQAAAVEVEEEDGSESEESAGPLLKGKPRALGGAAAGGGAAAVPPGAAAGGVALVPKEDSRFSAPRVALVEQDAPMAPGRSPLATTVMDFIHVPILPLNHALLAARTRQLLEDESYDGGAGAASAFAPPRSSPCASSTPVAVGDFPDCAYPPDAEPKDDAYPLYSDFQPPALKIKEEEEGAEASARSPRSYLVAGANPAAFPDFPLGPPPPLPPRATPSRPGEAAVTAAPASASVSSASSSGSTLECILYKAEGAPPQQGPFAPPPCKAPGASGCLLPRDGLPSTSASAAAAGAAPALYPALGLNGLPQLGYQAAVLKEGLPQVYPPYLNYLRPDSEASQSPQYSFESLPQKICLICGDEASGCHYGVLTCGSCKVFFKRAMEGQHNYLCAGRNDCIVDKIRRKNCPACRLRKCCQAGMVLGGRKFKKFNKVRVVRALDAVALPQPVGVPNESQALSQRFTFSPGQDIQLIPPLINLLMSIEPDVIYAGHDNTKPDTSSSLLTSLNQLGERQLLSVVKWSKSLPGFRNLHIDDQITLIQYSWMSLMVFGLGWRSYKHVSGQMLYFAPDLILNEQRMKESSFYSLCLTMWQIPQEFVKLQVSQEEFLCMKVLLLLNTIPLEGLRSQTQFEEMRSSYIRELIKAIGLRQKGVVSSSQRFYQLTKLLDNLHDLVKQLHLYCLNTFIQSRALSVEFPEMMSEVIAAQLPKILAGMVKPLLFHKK

In the case of Cc1c(N2CCCC2)nc2ccc(Br)cc2c1C(=O)NC[C@H](CCC(=O)O)c1ccccc1Cl [BAY-6672], the inhibition [1] is reported as 14%, the inhibition [2] is reported as 12% and the inhibition [3] is reported as 8%. For the same compound, the inhibition [4, 24] was 4%, the inhibition ([4]; Compound concentration 0.01 uM) was -2% and the inhibition ([4]; Compound concentration 0.1 uM) was 3%. The inhibition ([4]; Compound concentration 1.0 uM) was 15%, the inhibition ([4]; Compound concentration 10.0 uM) was 4% and the inhibition [5] was -6%. For the same compound, the inhibition (Homo sapiens) was 3%, the inhibition [6] was 6% and the inhibition [7] was 5%. The inhibition [8] was 3%, the inhibition [9] was 2% and the inhibition [10] was 2%. For the same compound, the inhibition [11] was -3%, the inhibition [12] was 21.6% and the inhibition [13] was 9%. For the same compound, the inhibition [14] was 11%, the inhibition [15] was -1% and the inhibition [16, 24] was 6%. The inhibition ([16]; Compound concentration 0.01 uM) was 6%, the inhibition ([16]; Compound concentration 0.1 uM) was 18% and the inhibition ([16]; Compound concentration 1.0 uM) was 24%. For the same compound, the inhibition ([16]; Compound concentration 10.0 uM) was 42%, the inhibition [17] was 3% and the inhibition [18] was 6%. For the same compound, the inhibition [19] was 15%, the inhibition [20, 24] was -6% and the inhibition ([20]; Compound concentration 0.01 uM) was -1%. The inhibition ([20]; Compound concentration 0.1 uM) was 6%, the inhibition ([20]; Compound concentration 1.0 uM) was 17% and the inhibition ([20]; Compound concentration 10.0 uM) was 48%. It also gave an inhibition (Oryctolagus cuniculus) of 25%.
For Cc1c(N2CCNCC2)nc2ccc(Br)cc2c1C(=O)NC[C@H](CCC(=O)O)c1ccccc1Cl [BAY-403], the inhibition [21] was 18.3%, the inhibition [22] was 16.9% and the IC50 [23] was > 10 µM (not active).
